Test results taken from article PMC8185074, “Anchor extension: a structure-guided approach to design cyclic peptides targeting enzyme active sites” (Nature Communications, 2021).
Peptide text beside a SMILES is read from it.

Legend:
Type in all cases: biochemical
HDAC2 [1] = target: T1, HDAC2 (Homo sapiens, UniProt Q92769); assay: HDAC2 inhibition, full IC50 measurement (Reaction Biology; fluorogenic p53 peptide RHKK(Ac)AMC)
T1 construct: purchased Reaction Biology Corporation (assay run by the CRO)
How it was run: (§1)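 Inhibitory peptides were acoustically dispensed with enzyme, then substrate added; 1 h at 30 °C. Developer stopped reaction; plateau endpoint fluorescence (360/460 nm) gave IC50.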

HDAC1 = target: T2, HDAC1 (Homo sapiens, UniProt Q13547); assay: HDAC1 inhibition, full IC50 measurement (Reaction Biology; fluorogenic p53 peptide RHKK(Ac)AMC); conditions: for HDAC1 activity raw data (signal): t1/t2 replicates
T2 construct: purchased Reaction Biology Corporation (assay run by the CRO)
How it was run: as §1

HDAC2 [2] = target: T1, HDAC2; assay: Initial HDAC2 IC50 estimate (BPS Biosciences HDAC fluorogenic assay kit); conditions: Supplementary Dataset 2; read-out: HDAC2 activity (initial activity)
How it was run: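 Inhibition measured by kit-based fluorogenic HDAC activity assays, with each point in duplicate or triplicate. Values come from a full 1 µM–100 pM series (1:10 steps) or are range estimates from just 20 nM and 200 nM.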

HDAC3 = target: T3, HDAC3 (Homo sapiens, UniProt O15379); assay: HDAC3 inhibition, full IC50 measurement (Reaction Biology; fluorogenic p53 peptide RHKK(Ac)AMC)
T3 construct: purchased Reaction Biology Corporation (assay run by the CRO)
How it was run: as §1

HDAC8 = target: T4, HDAC8 (Homo sapiens, UniProt Q9BY41); assay: HDAC8 inhibition, full IC50 measurement (Reaction Biology; fluorogenic p53 peptide RHKK(Ac)AMC); conditions: for HDAC8 activity raw data (signal): t1/t2 replicates
T4 construct: purchased Reaction Biology Corporation (assay run by the CRO)
T4 sequence (Q9BY41 1-377): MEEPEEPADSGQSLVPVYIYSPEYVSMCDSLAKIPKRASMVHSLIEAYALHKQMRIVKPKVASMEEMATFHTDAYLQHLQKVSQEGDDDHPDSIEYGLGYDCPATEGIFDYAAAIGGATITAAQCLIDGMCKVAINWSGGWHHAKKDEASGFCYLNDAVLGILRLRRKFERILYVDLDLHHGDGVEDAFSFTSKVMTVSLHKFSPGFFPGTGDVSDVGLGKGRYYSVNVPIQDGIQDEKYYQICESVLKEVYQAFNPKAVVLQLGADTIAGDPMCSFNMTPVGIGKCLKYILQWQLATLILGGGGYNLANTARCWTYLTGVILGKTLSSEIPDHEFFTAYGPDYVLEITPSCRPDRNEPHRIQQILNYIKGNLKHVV
How it was run: as §1

[3] = peptide conc. 1.00E-05 M, listed as des4.2.0_t1
[4] = peptide conc. 1.00E-05 M, listed as des4.2.0_t2
[5] = peptide conc. 1.11E-06 M, listed as des4.2.0_t1
[6] = peptide conc. 1.11E-06 M, listed as des4.2.0_t2
[7] = peptide conc. 1.23E-07 M, listed as des4.2.0_t1
[8] = peptide conc. 1.23E-07 M, listed as des4.2.0_t2
[9] = peptide conc. 1.37E-08 M, listed as des4.2.0_t1
[10] = peptide conc. 1.37E-08 M, listed as des4.2.0_t2
[11] = peptide conc. 1.52E-09 M, listed as des4.2.0_t1
[12] = peptide conc. 1.52E-09 M, listed as des4.2.0_t2
[13] = peptide conc. 3.33E-06 M, listed as des4.2.0_t1
[14] = peptide conc. 3.33E-06 M, listed as des4.2.0_t2
[15] = peptide conc. 3.70E-07 M, listed as des4.2.0_t1
[16] = peptide conc. 3.70E-07 M, listed as des4.2.0_t2
[17] = peptide conc. 4.12E-08 M, listed as des4.2.0_t1
[18] = peptide conc. 4.12E-08 M, listed as des4.2.0_t2
[19] = peptide conc. 4.57E-09 M, listed as des4.2.0_t1
[20] = peptide conc. 4.57E-09 M, listed as des4.2.0_t2
[21] = peptide conc. 5.08E-10 M, listed as des4.2.0_t1
[22] = peptide conc. 5.08E-10 M, listed as des4.2.0_t2

T2 sequence (Q13547 whole entry): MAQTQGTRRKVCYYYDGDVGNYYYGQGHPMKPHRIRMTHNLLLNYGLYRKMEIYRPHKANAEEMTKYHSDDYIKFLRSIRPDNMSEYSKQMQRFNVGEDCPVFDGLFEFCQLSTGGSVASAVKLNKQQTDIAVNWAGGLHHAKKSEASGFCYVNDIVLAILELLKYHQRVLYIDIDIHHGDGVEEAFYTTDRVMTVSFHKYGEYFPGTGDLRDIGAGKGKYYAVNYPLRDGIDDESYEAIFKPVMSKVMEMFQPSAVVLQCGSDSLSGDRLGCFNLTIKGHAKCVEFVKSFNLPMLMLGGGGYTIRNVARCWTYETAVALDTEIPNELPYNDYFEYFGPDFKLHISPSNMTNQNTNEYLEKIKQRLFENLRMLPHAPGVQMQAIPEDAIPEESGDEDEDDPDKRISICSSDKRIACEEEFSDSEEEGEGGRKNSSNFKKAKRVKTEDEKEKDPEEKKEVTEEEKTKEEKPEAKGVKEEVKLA
T1 sequence (Q92769 whole entry): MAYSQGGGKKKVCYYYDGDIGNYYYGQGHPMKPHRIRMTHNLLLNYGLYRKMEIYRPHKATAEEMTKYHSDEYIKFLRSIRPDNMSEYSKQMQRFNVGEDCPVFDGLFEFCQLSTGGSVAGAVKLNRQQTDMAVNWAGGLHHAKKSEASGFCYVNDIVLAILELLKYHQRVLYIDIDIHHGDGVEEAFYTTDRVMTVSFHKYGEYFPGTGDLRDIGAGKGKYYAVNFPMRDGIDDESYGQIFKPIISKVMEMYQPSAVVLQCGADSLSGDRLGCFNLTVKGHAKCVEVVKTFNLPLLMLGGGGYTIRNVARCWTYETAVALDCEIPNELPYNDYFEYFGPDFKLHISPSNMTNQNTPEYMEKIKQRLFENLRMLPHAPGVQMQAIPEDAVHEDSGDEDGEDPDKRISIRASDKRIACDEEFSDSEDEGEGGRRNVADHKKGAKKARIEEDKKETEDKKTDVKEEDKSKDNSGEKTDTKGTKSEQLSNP
T3 sequence (O15379 whole entry): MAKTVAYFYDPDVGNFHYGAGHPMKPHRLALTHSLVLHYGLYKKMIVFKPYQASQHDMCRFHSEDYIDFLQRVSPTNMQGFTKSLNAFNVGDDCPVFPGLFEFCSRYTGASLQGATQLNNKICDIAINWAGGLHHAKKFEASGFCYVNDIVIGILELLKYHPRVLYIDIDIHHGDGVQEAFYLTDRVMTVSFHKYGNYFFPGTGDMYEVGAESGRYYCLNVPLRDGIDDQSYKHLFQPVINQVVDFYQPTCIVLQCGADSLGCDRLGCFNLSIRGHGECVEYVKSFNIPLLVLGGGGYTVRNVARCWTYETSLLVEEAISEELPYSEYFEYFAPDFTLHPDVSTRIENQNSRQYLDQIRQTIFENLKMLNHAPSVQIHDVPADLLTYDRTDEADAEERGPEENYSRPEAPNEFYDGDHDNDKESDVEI
T3 sequence (Q9Y618 395-489 partner limits assumed): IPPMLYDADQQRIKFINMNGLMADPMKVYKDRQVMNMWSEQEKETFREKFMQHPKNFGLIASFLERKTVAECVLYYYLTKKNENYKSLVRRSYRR

CC(C)[C@@H]1NC(=O)[C@H](CCCNC(=N)N)NC(=O)[C@@H](CC(=O)O)NC(=O)[C@H](CO)NC(=O)[C@@H](CO)NC(=O)[C@@H](CCC(=O)O)NC(=O)[C@H](Cc2ccc(O)cc2)NC(=O)[C@H](CCCCCS)NC1=O [des4.2.0, SHA-Tyr-dGlu-dSer-Ser-dAsp-Arg-Val] (HELM PEPTIDE1{R.V.[O=C([C@H](CCCCCS)N[*:1])[*:2]].Y.[dE].[dS].S.[dD]}$PEPTIDE1,PEPTIDE1,1:R1-8:R2$$$V2.0)
HDAC2 activity raw data (signal) (HDAC2 [1]; Conc. 1.00E-05 M, t1): 20394 | HDAC2 activity raw data (signal) (HDAC2 [1]; Conc. 1.00E-05 M, t2): 38836 | HDAC2 activity raw data (signal) (HDAC2 [1]; Conc. 1.11E-06 M, t1): 480221 | HDAC2 activity raw data (signal) (HDAC2 [1]; Conc. 1.11E-06 M, t2): 475819 | HDAC2 activity raw data (signal) (HDAC2 [1]; Conc. 1.23E-07 M, t1): 1083936 | HDAC2 activity raw data (signal) (HDAC2 [1]; Conc. 1.23E-07 M, t2): 1073630 | HDAC2 activity raw data (signal) (HDAC2 [1]; Conc. 1.37E-08 M, t1): 1586330 | HDAC2 activity raw data (signal) (HDAC2 [1]; Conc. 1.37E-08 M, t2): 1580365 | HDAC2 activity raw data (signal) (HDAC2 [1]; Conc. 1.52E-09 M, t1): 1730890 | HDAC2 activity raw data (signal) (HDAC2 [1]; Conc. 1.52E-09 M, t2): 1745453 | HDAC2 activity raw data (signal) (HDAC2 [1]; Conc. 3.33E-06 M, t1): 208395 | HDAC2 activity raw data (signal) (HDAC2 [1]; Conc. 3.33E-06 M, t2): 205670 | HDAC2 activity raw data (signal) (HDAC2 [1]; Conc. 3.70E-07 M, t1): 726508 | HDAC2 activity raw data (signal) (HDAC2 [1]; Conc. 3.70E-07 M, t2): 767311 | HDAC2 activity raw data (signal) (HDAC2 [1]; Conc. 4.12E-08 M, t1): 1358432 | HDAC2 activity raw data (signal) (HDAC2 [1]; Conc. 4.12E-08 M, t2): 1262650 | HDAC2 activity raw data (signal) (HDAC2 [1]; Conc. 4.57E-09 M, t1): 1679024 | HDAC2 activity raw data (signal) (HDAC2 [1]; Conc. 4.57E-09 M, t2): 1646125 | HDAC2 activity raw data (signal) (HDAC2 [1]; Conc. 5.08E-10 M, t1): 1775852 | HDAC2 activity raw data (signal) (HDAC2 [1]; Conc. 5.08E-10 M, t2): 1816576 | IC50 (HDAC2 [1]; figure legends, Supp. Table 1, read-out: HDAC2 IC50): 214 nM | IC50 (HDAC1; Supp. Table 1): 58.2 nM | HDAC1 activity raw data (signal) (HDAC1; [3]): 11630 | HDAC1 activity raw data (signal) (HDAC1; [4]): 12995 | HDAC1 activity raw data (signal) (HDAC1; [5]): 76613 | HDAC1 activity raw data (signal) (HDAC1; [6]): 123433 | HDAC1 activity raw data (signal) (HDAC1; [7]): 411114 | HDAC1 activity raw data (signal) (HDAC1; [8]): 418507 | HDAC1 activity raw data (signal) (HDAC1; [9]): 880188 | HDAC1 activity raw data (signal) (HDAC1; [10]): 934141 | HDAC1 activity raw data (signal) (HDAC1; [11]): 1108126 | HDAC1 activity raw data (signal) (HDAC1; [12]): 1086586 | HDAC1 activity raw data (signal) (HDAC1; [13]): 45545 | HDAC1 activity raw data (signal) (HDAC1; [14]): 50745 | HDAC1 activity raw data (signal) (HDAC1; [15]): 212662 | HDAC1 activity raw data (signal) (HDAC1; [16]): 215699 | HDAC1 activity raw data (signal) (HDAC1; [17]): 634511 | HDAC1 activity raw data (signal) (HDAC1; [18]): 682055 | HDAC1 activity raw data (signal) (HDAC1; [19]): 995614 | HDAC1 activity raw data (signal) (HDAC1; [20]): 978150 | HDAC1 activity raw data (signal) (HDAC1; [21]): 1100683 | HDAC1 activity raw data (signal) (HDAC1; [22]): 1179300 | IC50 (HDAC2 [2]): 200 nM | HDAC3 activity raw data (signal) (HDAC3; Conc. 1.00E-05 M, t1): 26422 | HDAC3 activity raw data (signal) (HDAC3; Conc. 1.00E-05 M, t2): 22359 | HDAC3 activity raw data (signal) (HDAC3; Conc. 1.11E-06 M, t1): 160928 | HDAC3 activity raw data (signal) (HDAC3; Conc. 1.11E-06 M, t2): 163740 | HDAC3 activity raw data (signal) (HDAC3; Conc. 1.23E-07 M, t1): 525206 | HDAC3 activity raw data (signal) (HDAC3; Conc. 1.23E-07 M, t2): 581691 | HDAC3 activity raw data (signal) (HDAC3; Conc. 1.37E-08 M, t1): 1076943 | HDAC3 activity raw data (signal) (HDAC3; Conc. 1.37E-08 M, t2): 1111273 | HDAC3 activity raw data (signal) (HDAC3; Conc. 1.52E-09 M, t1): 1186064 | HDAC3 activity raw data (signal) (HDAC3; Conc. 1.52E-09 M, t2): 1359852 | HDAC3 activity raw data (signal) (HDAC3; Conc. 3.33E-06 M, t1): 71800 | HDAC3 activity raw data (signal) (HDAC3; Conc. 3.33E-06 M, t2): 63219 | HDAC3 activity raw data (signal) (HDAC3; Conc. 3.70E-07 M, t1): 296381 | HDAC3 activity raw data (signal) (HDAC3; Conc. 3.70E-07 M, t2): 296142 | HDAC3 activity raw data (signal) (HDAC3; Conc. 4.12E-08 M, t1): 806773 | HDAC3 activity raw data (signal) (HDAC3; Conc. 4.12E-08 M, t2): 863981 | HDAC3 activity raw data (signal) (HDAC3; Conc. 4.57E-09 M, t1): 1182733 | HDAC3 activity raw data (signal) (HDAC3; Conc. 4.57E-09 M, t2): 1313514 | HDAC3 activity raw data (signal) (HDAC3; Conc. 5.08E-10 M, t1): 1345816 | HDAC3 activity raw data (signal) (HDAC3; Conc. 5.08E-10 M, t2): 1394913 | IC50 (HDAC3; Supp. Table 1): 71.2 nM | IC50 (HDAC8; Supp. Table 1): 370 nM | HDAC8 activity raw data (signal) (HDAC8; [3]): 92279 | HDAC8 activity raw data (signal) (HDAC8; [4]): 81671 | HDAC8 activity raw data (signal) (HDAC8; [5]): 396585 | HDAC8 activity raw data (signal) (HDAC8; [6]): 434279 | HDAC8 activity raw data (signal) (HDAC8; [7]): 727023 | HDAC8 activity raw data (signal) (HDAC8; [8]): 752193 | HDAC8 activity raw data (signal) (HDAC8; [9]): 1107635 | HDAC8 activity raw data (signal) (HDAC8; [10]): 1031405 | HDAC8 activity raw data (signal) (HDAC8; [11]): 1115979 | HDAC8 activity raw data (signal) (HDAC8; [12]): 1078250 | HDAC8 activity raw data (signal) (HDAC8; [13]): 190039 | HDAC8 activity raw data (signal) (HDAC8; [14]): 213758 | HDAC8 activity raw data (signal) (HDAC8; [15]): 540901 | HDAC8 activity raw data (signal) (HDAC8; [16]): 562035 | HDAC8 activity raw data (signal) (HDAC8; [17]): 828599 | HDAC8 activity raw data (signal) (HDAC8; [18]): 842494 | HDAC8 activity raw data (signal) (HDAC8; [19]): 599790 | HDAC8 activity raw data (signal) (HDAC8; [20]): 1026390 | HDAC8 activity raw data (signal) (HDAC8; [21]): 1085628 | HDAC8 activity raw data (signal) (HDAC8; [22]): 1128546
